Measurements as given in PubChem BioAssay (NCI).
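96-well plates; 48 h exposure; 5 concentrations. Endpoints by linear interpolation between flanking doses. Not reached: highest tested concentration assigned. Here, GI50 denotes the concentration required for 50% inhibition of growth. TGI marks complete inhibition of growth.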

Assays:
Test in all cases: NCI anticancer screen, dose series, 48 h
[1] = tested on: HL-60(TB) leukemia
[2] = tested on: SR leukemia
[3] = tested on: SN12C renal
[4] = tested on: HCT-15 colon
[5] = tested on: DMS 273 small cell lung
[6] = tested on: K-562 leukemia
[7] = tested on: DLD-1 colon
[8] = tested on: SNB-75 CNS
[9] = tested on: HCC-2998 colon
[10] = tested on: MDA-MB-231 breast

| Structure (SMILES) | TGI [1] | TGI [2] | TGI [3] | TGI [4] | TGI [5] | TGI [6] | TGI [7] | TGI [8] | TGI [9] | GI50 [1] | GI50 [2] | GI50 [3] | GI50 [4] | GI50 [6] | GI50 [10] | TGI [10] | GI50 [8] | GI50 [9] |
| --- | --- | --- | --- | --- | --- | --- | --- | --- | --- | --- | --- | --- | --- | --- | --- | --- | --- | --- |
| O=C1c2cccc([N+](=O)[O-])c2C(=O)c2nccnc21 | 4.81 µM | 5.04 µM | 3.64 µM | 2.92 µM | 12.3 µM | 4.17 µM | 11.4 µM | 2.35 µM | 6.17 µM |  |  |  |  |  |  |  |  |  |
| O=C(CN(Cc1ccccc1)Cc1ccccc1)N1CCc2c([nH]c3ccccc23)C1c1cccnc1 (stereo unspecified) | 4.17 µM | 30.6 µM | 8.64 µM | > 100 µM | 82.8 µM | > 100 µM | > 100 µM | 81.9 µM | > 100 µM |  |  |  |  |  |  |  |  |  |
| CN1C(c2ccccc2)CC(C)(O)CC1c1ccccc1 (stereo unspecified) | > 100 µM | > 100 µM | > 100 µM | > 100 µM | > 100 µM | > 100 µM | > 100 µM | > 100 µM | > 100 µM |  |  |  |  |  |  |  |  |  |
| Cc1ccccc1C=NC12CC3CC(CC(C3)C1)C2 | > 100 µM |  | > 100 µM | > 100 µM | > 100 µM | > 100 µM | > 100 µM | > 100 µM | > 100 µM |  |  |  |  |  |  |  |  |  |
| Cc1cc(Cl)ccc1NC(=O)CC1SC(=NC(=O)c2ccccc2Cl)NC1=O (stereo unspecified) | 4.72 µM | 34.5 µM | 33.5 µM | 33.1 µM | 37 µM | 47.6 µM | 34 µM | 35 µM | > 100 µM |  |  |  |  |  |  |  |  |  |
| CCc1cccc(C)c1N1C(=O)C(=O)C(c2nc3ccccc3o2)/C(=N/NC(=S)NN)C1=O (stereo unspecified) | > 100 µM |  | > 100 µM | > 100 µM | > 100 µM | > 100 µM | > 100 µM | > 100 µM |  |  |  |  |  |  |  |  |  |  |
| O=CC1CCC=CC1NC(=O)OCc1ccccc1 (stereo unspecified) | 46.5 µM | > 100 µM | > 100 µM | > 100 µM | > 100 µM | > 100 µM | > 100 µM | 94.3 µM |  |  |  |  |  |  |  |  |  |  |
| N#CC(C(=O)/C(=N/NC(=O)c1ccccc1O)C(C#N)c1ccc(Br)cc1)c1ccc(Br)cc1 (stereo unspecified) |  |  | 21.9 µM | 25.5 µM | 26.8 µM | > 100 µM | 25.6 µM | 9.98 µM | 24.7 µM |  |  |  |  |  |  |  |  |  |
| O=C(Nc1ccccc1)n1cc(-c2ccccn2)c(N2CCOCC2)n1 | 6.93 µM |  | > 100 µM | > 100 µM | 42.1 µM | > 100 µM | > 100 µM | 43.7 µM | > 100 µM |  |  |  |  |  |  |  |  |  |
| O=C[C@]12CC=C3OC4OC5(CCCCC5)OC4[C@H]3[C@H]1C(=O)C=CC2=O (stereo partly specified) | 2.78 µM | 7.93 µM | > 100 µM | 43.4 µM | > 100 µM |  | 38.9 µM |  | 90.8 µM |  |  |  |  |  |  |  |  |  |
| N#CC(C#N)=Cc1ccc(C(O)P(=O)(O)O)cc1 (stereo unspecified) | > 100 µM |  | > 100 µM | > 100 µM | > 100 µM | > 100 µM | > 100 µM |  | > 100 µM |  |  |  |  |  |  |  |  |  |
| O=C(Nc1ccc(Oc2ccc(NC(=O)Nc3ccccc3Cl)cc2)cc1)Nc1ccccc1Cl | 32.4 µM | 13.3 µM | > 100 µM | > 100 µM |  | > 40.1 µM |  | 37.3 µM | > 51.7 µM | 14.8 µM | 0.453 µM | 7.55 µM | 0.677 µM | 2.63 µM | 9.4 µM | 29.6 µM | 12.2 µM | 8.47 µM |
| O=C(/C=C\c1cc(Br)ccc1O)/C=C/c1cc(Br)ccc1O | 4.26 µM | 29.7 µM | 4.63 µM | 1.76 µM |  | 8.12 µM |  | 2.8 µM | 2.89 µM | 0.385 µM | 0.321 µM | 1.47 µM | 0.384 µM | 0.445 µM | 0.372 µM | 4.07 µM | 1.34 µM | 1.51 µM |
| CCCCOC(=O)/C=C\C(=O)NC(N)=O | 49.9 µM | > 100 µM | > 100 µM | 38.3 µM |  | > 100 µM |  | 74.9 µM | 35.4 µM | 22.8 µM | 35.7 µM | 41.5 µM | 15.6 µM | 31.3 µM | 17.9 µM | 42.6 µM | 18 µM | 19.8 µM |
| COc1ccc(N=N/C(=N\NC(=O)c2cc(Br)ccc2O)c2ccc(N(CCC#N)CCC#N)cc2OC)cc1 | > 150 µg/mL | > 150 µg/mL | > 150 µg/mL | > 150 µg/mL |  | > 150 µg/mL |  | 86.8 µg/mL | 66.5 µg/mL | 56.7 µg/mL | 62.8 µg/mL | 77.6 µg/mL | 42 µg/mL | 74.9 µg/mL | 70.8 µg/mL | > 150 µg/mL | 27.6 µg/mL | 28.7 µg/mL |
| CCC(CC)c1cc(N[C@H]2CC[C@H](N)C2)n2nccc2n1 | 14.9 µM | > 100 µM | > 100 µM | > 100 µM |  | > 100 µM |  | 3.32 µM | 12 µM | 0.324 µM | 0.332 µM | 0.691 µM | 2.23 µM | 0.642 µM | 1.05 µM | > 100 µM | 1.28 µM | 1.52 µM |
| NC(CP(=O)(O)O)C(=O)O (stereo unspecified) | > 100 µM | > 100 µM | > 100 µM | > 100 µM |  | > 100 µM |  | > 100 µM | > 100 µM |  |  |  |  |  |  | > 100 µM |  |  |
| O=c1c2ccccc2nc2n1CCc1c-2[nH]c2cc3c(cc12)OCO3 | > 25 µM | > 25 µM | > 25 µM | > 25 µM |  | > 25 µM |  | 22 µM | > 25 µM |  |  |  |  |  |  | > 25 µM |  |  |
| COC(=O)C(=NNc1ccccc1[N+](=O)[O-])C(=O)OC | > 100 µM | > 100 µM | > 100 µM |  | > 100 µM | > 100 µM |  |  | > 100 µM |  |  |  |  |  |  |  |  |  |
| Cn1nc(-c2ccccc2)c2c(/C=C/c3ccc(Cl)cc3)onc2c1=O |  |  | > 100 µM | > 100 µM | > 100 µM | > 100 µM | > 100 µM |  |  |  |  |  |  |  |  |  |  |  |
| Cc1cc(I)cc(CNCCN2CCOCC2)c1O | > 100 µM | > 100 µM | > 100 µM | > 100 µM |  | > 100 µM |  | > 100 µM | > 100 µM | > 100 µM | 90.2 µM | > 100 µM | > 100 µM | 87.5 µM | > 100 µM | > 100 µM | 75.6 µM | 43.9 µM |
